Values quoted from earlier work, collected in patent US20250221936A1, “ENGINEERED HEMICHANNELS, ENGINEERED VESICLES, AND USES THEREOF” (VIRGINIA TECH INTELLECTUAL PROPERTIES, INC., priority 2018, published 2025).

Key:
[1] = system: cerebral lesion; conditions: 100 μM in 2% collagen within HFM; cited from earlier work
[2] = system: 8 mm wide circular excisional skin injuries; conditions: 100 μM in 30% pluronic gel; 10-14 day time course; cited from earlier work
[3] = system: silicon wafer implants; conditions: 24 hours; cited from earlier work

| Sequence | density of GFAP-positive astrocytes [1] | healing of excisional injuries [2] | tissue reaction zone [3] |
| --- | --- | --- | --- |
| RQPKIWFPNRRKPWKKRPRPDDLEI [alpha CT1] | much lower density of GFAP-positive astrocytes | closed faster, were less inflamed in appearance, healed faster and scarred less |  |
| VFFKGVKDRVKGRSD [JM2] |  |  | substantially narrower tissue reaction zone |
